Measured values: ChEMBL document CHEMBL1201862, “PubChem BioAssay data set” (2004)
Calls of active or inactive are those of the source.

Assays:
[1] = target: Sphingosine 1-phosphate receptor 2 (Homo sapiens, UniProt O95136); assay: Late stage counterscreen assay for S1P4 antagonists: Fluorescence dose response cell-based screening assay for antagonists of the Sphingosine 1-Phosphate Receptor 2 (S1P2). [Related pubchem assays (depositor defined):AID1510, AID1524, AID1692, AID1853, AID2332, AID489009, AID489017]; assay type: functional
[2] = target: Sphingosine 1-phosphate receptor 1 (Homo sapiens, UniProt P21453); assay: Late stage counterscreen assay for S1P4 antagonists: Fluorescence dose response cell-based screening assay for antagonists of the Sphingosine 1-Phosphate Receptor 1 (S1P1). [Related pubchem assays (depositor defined):AID1510, AID1524, AID1692, AID1853, AID2332, AID489009, AID489017]; assay type: functional
[3] = target: Sphingosine 1-phosphate receptor 3 (Homo sapiens, UniProt Q99500); assay: Late stage counterscreen assay for S1P4 antagonists: Fluorescence dose response cell-based screening assay for antagonists of the Sphingosine 1-Phosphate Receptor 3 (S1P3). [Related pubchem assays (depositor defined):AID1510, AID1524, AID1692, AID1853, AID2332, AID489009, AID489017]; assay type: functional
[4] = target: Sphingosine 1-phosphate receptor 5 (Homo sapiens, UniProt Q9H228); assay: Late stage counterscreen assay for S1P4 antagonists: Fluorescence dose response cell-based screening assay for antagonists of the Sphingosine 1-Phosphate Receptor 5 (S1P5). [Related pubchem assays (depositor defined):AID1510, AID1524, AID1692, AID1853, AID2332, AID489009, AID489017]; assay type: functional
[5] = target: T1, Tyrosine-protein phosphatase non-receptor type 7 (Homo sapiens, UniProt P35236); assay type: functional
T1 sequence (P35236 whole entry): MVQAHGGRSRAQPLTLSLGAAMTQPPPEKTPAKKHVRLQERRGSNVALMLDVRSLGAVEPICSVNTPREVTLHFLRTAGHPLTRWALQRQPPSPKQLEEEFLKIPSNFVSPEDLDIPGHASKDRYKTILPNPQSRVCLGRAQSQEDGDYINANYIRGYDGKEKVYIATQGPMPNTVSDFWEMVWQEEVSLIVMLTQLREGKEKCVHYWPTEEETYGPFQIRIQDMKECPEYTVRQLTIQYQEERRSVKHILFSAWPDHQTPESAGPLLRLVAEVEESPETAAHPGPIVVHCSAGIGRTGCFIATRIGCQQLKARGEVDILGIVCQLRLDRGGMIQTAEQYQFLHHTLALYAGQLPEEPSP

[6] = target: T2, Tyrosine-protein phosphatase non-receptor type 22 (Homo sapiens, UniProt Q9Y2R2); assay type: functional
T2 sequence (Q9Y2R2 whole entry): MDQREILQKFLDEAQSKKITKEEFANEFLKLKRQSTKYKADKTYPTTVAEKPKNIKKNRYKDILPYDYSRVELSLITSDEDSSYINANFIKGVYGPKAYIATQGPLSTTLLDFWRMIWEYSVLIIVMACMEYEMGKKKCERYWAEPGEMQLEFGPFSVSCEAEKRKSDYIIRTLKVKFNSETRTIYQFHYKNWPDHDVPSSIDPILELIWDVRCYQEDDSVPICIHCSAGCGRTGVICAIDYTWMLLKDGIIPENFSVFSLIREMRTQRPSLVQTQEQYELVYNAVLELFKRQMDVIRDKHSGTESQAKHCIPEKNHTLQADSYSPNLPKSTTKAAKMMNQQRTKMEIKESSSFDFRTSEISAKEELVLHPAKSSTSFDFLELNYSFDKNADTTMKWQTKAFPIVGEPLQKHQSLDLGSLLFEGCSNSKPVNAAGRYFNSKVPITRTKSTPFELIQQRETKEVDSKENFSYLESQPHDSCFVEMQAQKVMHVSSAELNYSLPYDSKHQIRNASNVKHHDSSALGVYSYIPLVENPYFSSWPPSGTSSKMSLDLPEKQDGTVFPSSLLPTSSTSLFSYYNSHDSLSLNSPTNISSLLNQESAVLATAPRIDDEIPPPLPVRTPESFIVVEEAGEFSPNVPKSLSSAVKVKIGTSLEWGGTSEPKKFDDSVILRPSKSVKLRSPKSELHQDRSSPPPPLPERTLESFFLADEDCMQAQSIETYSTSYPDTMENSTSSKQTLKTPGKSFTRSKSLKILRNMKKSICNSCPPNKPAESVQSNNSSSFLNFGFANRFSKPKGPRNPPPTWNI

[7] = target: T2, Tyrosine-protein phosphatase non-receptor type 22; assay type: functional; remark: listed apart in the source
[8] = C. albicans growth with fluconazole, confirmation, fluorescence, retest (AID 2467); assay type: functional, cell-based
[9] = target: T3, Probable nicotinate-nucleotide adenylyltransferase (Staphylococcus aureus (strain N315), UniProt P65502); assay type: functional, Staphylococcus aureus subsp. aureus N315; settings: read-out: IC50_Mean;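 as to IC50 Mean: confirmatory dose-response retesting of NadD inhibitor hits first found in an ultra-high-throughput screen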
[10] = tested on: Streptococcus sp. 'group A'; assay: growth inhibition of control SK(-) GAS strain, dose response, counter-screen for streptokinase expression inhibitor project, luminescence, kanamycin, BacTiterGlo, confirmation (AID 1900); assay type: functional, organism-based
[11] = target: T3, Probable nicotinate-nucleotide adenylyltransferase; assay type: functional, Staphylococcus aureus subsp. aureus N315
[12] = tested on: Vero; assay: Vero cell cytotoxicity, cytotoxicity control for flavivirus capping enzyme inhibitors (AID 588742); assay type: functional; settings: Chlorocebus sabaeus
[13] = target: T4, Streptokinase A (Streptococcus pyogenes serotype M1, UniProt P10520); assay: S. pyogenes streptokinase expression inhibitors, potency, dose response, plasminogen activation absorbance, OD405 (AID 1914); assay type: functional, Streptococcus pyogenes M1 GAS;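 also: secreted streptokinase activity via plasminogen activation per viability signal from cell pellet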
T4 sequence (P10520 whole entry): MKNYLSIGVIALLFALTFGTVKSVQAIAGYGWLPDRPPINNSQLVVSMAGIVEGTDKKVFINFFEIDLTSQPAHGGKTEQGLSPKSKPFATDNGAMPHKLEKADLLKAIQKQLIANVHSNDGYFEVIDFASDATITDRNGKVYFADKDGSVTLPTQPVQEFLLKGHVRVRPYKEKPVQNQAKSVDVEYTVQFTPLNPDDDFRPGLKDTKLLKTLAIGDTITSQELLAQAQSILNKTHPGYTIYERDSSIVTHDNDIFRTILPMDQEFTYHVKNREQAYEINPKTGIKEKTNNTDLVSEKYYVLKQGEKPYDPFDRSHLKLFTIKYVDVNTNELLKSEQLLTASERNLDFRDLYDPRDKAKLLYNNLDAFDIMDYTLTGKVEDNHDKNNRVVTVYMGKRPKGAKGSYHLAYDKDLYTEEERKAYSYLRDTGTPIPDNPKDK

[14] = target: T5, Serine/threonine-protein phosphatase (Candida dubliniensis (strain CD36 / CBS 7987 / NCPF 3949 / NRRLY-17841) (Yeast), UniProt B9W6M3); assay: calcineurin pathway inhibitors in yeast reporter, dose response, S. cerevisiae, CDRE-lacZ, luminescence, secondary (AID 2388); assay type: functional, cell-based;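 also: yeast reporter cells carrying a calcineurin-responsive lacZ construct stimulated with calcium chloride; luminescent beta-galactosidase reporter signal in whole cells rather than isolated phosphatase activity; potency for inhibition where a drop in reporter signal means calcineurin blockade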
T5 sequence (B9W6M3 whole entry): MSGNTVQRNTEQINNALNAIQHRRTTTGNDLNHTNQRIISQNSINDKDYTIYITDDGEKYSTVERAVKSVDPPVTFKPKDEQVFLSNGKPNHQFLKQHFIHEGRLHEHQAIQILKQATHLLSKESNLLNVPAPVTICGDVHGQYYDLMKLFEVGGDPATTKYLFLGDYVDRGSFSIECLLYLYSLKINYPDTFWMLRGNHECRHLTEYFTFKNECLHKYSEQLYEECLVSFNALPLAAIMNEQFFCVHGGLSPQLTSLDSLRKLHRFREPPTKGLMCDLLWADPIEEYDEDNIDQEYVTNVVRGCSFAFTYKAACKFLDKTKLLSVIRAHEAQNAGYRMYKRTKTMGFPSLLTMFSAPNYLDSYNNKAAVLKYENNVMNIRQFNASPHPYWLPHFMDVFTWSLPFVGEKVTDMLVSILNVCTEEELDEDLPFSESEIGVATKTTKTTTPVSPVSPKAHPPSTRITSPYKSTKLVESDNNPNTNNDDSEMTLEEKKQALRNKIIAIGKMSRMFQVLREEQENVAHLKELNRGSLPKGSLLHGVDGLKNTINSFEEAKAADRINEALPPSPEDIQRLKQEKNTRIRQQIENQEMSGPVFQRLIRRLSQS

[15] = target: T6, Aminopeptidase N (Plasmodium falciparum FcB1/Columbia, UniProt O96935); assay: P. falciparum M1AAP inhibitors, biochemical, fluorogenic H-Leu-NHMec substrate, 1536-well (AID 1445); design: species or system Plasmodium falciparum 3D7, 3D7
T6 sequence (O96935 whole entry): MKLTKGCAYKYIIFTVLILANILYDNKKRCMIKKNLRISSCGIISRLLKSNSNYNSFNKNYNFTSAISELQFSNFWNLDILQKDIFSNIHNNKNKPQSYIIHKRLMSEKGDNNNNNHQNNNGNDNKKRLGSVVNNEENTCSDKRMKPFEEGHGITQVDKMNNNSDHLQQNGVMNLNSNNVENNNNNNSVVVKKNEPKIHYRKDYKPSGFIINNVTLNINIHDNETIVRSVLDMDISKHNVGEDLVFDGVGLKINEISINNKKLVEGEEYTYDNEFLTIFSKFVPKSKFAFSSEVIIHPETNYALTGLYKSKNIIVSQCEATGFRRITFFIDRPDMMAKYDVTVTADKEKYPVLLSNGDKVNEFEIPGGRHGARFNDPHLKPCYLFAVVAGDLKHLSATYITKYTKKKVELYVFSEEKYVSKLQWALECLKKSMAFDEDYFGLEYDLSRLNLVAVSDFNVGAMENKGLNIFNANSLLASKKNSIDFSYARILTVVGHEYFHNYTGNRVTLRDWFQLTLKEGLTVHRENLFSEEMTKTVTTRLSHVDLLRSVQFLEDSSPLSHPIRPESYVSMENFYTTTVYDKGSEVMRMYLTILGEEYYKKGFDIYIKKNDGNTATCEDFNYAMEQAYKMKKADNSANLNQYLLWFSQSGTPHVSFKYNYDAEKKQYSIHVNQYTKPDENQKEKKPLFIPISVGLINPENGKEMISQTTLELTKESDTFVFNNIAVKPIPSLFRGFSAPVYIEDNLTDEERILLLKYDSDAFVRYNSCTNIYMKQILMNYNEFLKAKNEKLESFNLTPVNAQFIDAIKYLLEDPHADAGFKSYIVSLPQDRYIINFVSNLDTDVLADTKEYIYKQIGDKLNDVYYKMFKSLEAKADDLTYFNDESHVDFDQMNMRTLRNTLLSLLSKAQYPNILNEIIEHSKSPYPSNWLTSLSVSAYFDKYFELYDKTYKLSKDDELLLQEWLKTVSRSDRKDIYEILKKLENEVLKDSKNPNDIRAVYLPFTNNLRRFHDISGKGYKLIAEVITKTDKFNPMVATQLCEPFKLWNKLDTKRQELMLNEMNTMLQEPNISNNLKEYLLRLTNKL

[16] = target: ATP-dependent molecular chaperone HSP82 (Candida albicans (strain WO-1) (Yeast), UniProt C4YTQ8); assay: loss of DOC-induced GRE-beta-galactosidase reporter signal, dose response, Hsp90 inhibitor project, S. cerevisiae, luminescence (AID 2400); assay type: functional, cell-based;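 also: beta-galactosidase luminescence from glucocorticoid response element reporter as proxy for Hsp90 function; inhibitor potency where signal loss means Hsp90 inhibition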
[17] = target: Induced myeloid leukemia cell differentiation protein Mcl-1 (Homo sapiens, UniProt Q07820); assay type: functional
[18] = target: Peroxisome proliferator-activated receptor gamma/Nuclear receptor coactivator 1 (Homo sapiens, UniProt P37231); assay: TR-FRET dose response biochemical High Throughput Screening assay for agonists of the steroid receptor coactivator 1 (SRC-1) recruitment by the peroxisome proliferator-activated receptor gamma (PPAR gamma): non-selective agonists. [Related pubchem assays (depositor defined):AID1300, AID1808, AID504735, AID631]; assay type: protein assay
[19] = tested on: Streptococcus; assay: Group A Streptococcus viability loss, dose response, counter-screen for streptokinase expression inhibitor project, luminescence, BacTiterGlo (AID 1915); assay type: functional, organism-based;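 also: potency for reduction of bacterial viability or growth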
[20] = target: Peroxisome proliferator-activated receptor gamma/Nuclear receptor coactivator 2 (Homo sapiens, UniProt P37231); assay: TR-FRET dose response biochemical High Throughput Screening assay for agonists of the steroid receptor coactivator 2 (SRC-2) recruitment by the peroxisome proliferator-activated receptor gamma (PPAR gamma): non-selective agonists. [Related pubchem assays: 1297, 1032 ]; assay type: functional
[21] = tested on: Escherichia coli; assay: microbe, parasite or virus in culture
[22] = target: Peroxisome proliferator-activated receptor gamma/Nuclear receptor coactivator 3 (Homo sapiens, UniProt P37231); assay: TR-FRET dose response biochemical High Throughput Screening assay for agonists of the steroid receptor coactivator 3 (SRC-3) recruitment by the peroxisome proliferator-activated receptor gamma (PPAR gamma): non-selective agonists. [Related pubchem assays: 1301 (Confirmation screen.), 1048 (Primary screen.)]; assay type: functional
[23] = target: Genome polyprotein (dengue virus type 2, UniProt P29990); assay: Dengue-2 NS5 methyltransferase inhibitors, primary screen, biochemical, confirmation dose response (AID 588689); assay type: functional
[24] = NIH-3T3 fibroblast cytotoxicity, dose response, cytotoxicity control, cell-based, fluorescence, Alamar Blue, secondary assay (AID 2327); assay type: functional;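 also: NIH-3T3 mouse fibroblasts cultured with fluconazole at 8 µg/mL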

T3 sequence (P65502 whole entry): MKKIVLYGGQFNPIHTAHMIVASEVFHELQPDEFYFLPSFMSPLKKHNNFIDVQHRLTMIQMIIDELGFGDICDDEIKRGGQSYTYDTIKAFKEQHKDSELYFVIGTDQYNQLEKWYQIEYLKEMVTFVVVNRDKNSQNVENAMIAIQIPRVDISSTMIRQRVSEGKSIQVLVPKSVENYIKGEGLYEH
Chain of Sphingosine 1-phosphate receptor 2 (O95136 whole entry): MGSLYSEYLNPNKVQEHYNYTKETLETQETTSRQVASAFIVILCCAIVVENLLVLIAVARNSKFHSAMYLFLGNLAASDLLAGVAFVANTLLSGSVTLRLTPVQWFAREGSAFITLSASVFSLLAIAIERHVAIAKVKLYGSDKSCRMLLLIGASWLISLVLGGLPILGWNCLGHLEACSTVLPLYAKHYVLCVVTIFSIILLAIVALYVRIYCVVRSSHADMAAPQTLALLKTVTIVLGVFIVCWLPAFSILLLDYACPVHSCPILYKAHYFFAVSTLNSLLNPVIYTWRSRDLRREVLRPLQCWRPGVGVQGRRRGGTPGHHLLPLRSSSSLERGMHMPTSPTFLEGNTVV
Chain of ATP-dependent molecular chaperone HSP82 (C4YTQ8 whole entry): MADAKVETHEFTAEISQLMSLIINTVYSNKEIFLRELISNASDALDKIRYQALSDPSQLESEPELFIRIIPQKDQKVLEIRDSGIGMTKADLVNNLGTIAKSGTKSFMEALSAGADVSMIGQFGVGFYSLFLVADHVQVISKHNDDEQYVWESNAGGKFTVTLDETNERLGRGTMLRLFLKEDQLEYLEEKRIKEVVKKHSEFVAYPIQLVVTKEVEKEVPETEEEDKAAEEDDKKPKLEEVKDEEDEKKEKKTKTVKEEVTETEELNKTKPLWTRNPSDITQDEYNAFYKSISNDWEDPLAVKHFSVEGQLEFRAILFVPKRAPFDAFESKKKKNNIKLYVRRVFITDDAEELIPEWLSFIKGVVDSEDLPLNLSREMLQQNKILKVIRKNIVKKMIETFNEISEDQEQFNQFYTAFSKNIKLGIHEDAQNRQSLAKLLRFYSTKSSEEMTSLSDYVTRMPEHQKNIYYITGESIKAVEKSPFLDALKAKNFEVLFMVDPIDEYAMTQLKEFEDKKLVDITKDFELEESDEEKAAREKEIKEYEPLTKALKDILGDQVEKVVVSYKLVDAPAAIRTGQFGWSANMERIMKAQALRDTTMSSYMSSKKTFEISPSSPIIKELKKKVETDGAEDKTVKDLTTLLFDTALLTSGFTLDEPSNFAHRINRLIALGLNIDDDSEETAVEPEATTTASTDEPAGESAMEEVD
Chain of Sphingosine 1-phosphate receptor 3 (Q99500 whole entry): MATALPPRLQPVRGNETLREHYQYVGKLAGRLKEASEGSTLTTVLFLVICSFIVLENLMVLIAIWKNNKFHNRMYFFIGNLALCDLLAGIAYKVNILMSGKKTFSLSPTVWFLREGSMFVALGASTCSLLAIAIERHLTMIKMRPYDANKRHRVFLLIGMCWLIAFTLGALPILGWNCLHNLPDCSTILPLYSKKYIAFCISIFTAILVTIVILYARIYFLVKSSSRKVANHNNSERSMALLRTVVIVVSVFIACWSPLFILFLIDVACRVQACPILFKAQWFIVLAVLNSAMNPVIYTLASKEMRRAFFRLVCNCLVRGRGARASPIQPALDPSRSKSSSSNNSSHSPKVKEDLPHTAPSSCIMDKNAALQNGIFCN
Chain of Genome polyprotein (P29990 2492-3391 limits assumed): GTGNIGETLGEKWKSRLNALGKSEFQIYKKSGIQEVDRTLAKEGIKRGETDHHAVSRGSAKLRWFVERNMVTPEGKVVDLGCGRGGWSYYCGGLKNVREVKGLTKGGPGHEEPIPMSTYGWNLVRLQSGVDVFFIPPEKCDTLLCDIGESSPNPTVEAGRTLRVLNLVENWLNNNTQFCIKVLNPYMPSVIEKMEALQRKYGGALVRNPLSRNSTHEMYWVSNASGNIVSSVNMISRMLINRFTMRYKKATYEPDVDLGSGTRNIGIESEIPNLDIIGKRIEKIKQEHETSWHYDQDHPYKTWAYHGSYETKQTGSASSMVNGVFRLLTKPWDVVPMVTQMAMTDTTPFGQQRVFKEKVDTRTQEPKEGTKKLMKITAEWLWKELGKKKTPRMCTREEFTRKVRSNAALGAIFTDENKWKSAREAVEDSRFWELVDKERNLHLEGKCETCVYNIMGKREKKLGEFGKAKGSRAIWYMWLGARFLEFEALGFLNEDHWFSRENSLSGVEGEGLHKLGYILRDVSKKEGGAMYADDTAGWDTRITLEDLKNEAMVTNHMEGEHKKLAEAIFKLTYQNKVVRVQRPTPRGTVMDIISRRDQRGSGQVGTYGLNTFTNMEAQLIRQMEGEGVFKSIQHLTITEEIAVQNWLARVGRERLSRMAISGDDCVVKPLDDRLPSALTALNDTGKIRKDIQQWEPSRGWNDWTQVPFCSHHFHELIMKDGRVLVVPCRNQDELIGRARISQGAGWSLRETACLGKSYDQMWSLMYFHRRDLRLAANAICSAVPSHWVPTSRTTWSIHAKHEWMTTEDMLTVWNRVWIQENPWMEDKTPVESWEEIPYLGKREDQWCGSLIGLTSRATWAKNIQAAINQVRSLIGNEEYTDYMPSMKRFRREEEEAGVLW
Chain of Peroxisome proliferator-activated receptor gamma/Nuclear receptor coactivator 3 (P37231 whole entry): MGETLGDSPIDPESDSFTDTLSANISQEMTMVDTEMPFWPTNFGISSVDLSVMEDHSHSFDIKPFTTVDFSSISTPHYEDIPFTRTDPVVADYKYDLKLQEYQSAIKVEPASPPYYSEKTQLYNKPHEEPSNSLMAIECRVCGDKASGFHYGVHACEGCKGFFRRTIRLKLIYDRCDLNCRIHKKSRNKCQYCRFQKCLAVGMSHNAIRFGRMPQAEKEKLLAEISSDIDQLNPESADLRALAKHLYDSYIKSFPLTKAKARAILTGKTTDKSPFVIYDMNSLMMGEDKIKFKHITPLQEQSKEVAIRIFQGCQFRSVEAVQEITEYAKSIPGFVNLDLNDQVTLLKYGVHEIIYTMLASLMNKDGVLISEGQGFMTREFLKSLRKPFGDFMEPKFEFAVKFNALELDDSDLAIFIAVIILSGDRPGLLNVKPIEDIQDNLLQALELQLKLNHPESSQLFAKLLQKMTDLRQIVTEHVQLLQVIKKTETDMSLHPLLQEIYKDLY
Chain of Peroxisome proliferator-activated receptor gamma/Nuclear receptor coactivator 3 (Q9Y6Q9 whole entry, further chain): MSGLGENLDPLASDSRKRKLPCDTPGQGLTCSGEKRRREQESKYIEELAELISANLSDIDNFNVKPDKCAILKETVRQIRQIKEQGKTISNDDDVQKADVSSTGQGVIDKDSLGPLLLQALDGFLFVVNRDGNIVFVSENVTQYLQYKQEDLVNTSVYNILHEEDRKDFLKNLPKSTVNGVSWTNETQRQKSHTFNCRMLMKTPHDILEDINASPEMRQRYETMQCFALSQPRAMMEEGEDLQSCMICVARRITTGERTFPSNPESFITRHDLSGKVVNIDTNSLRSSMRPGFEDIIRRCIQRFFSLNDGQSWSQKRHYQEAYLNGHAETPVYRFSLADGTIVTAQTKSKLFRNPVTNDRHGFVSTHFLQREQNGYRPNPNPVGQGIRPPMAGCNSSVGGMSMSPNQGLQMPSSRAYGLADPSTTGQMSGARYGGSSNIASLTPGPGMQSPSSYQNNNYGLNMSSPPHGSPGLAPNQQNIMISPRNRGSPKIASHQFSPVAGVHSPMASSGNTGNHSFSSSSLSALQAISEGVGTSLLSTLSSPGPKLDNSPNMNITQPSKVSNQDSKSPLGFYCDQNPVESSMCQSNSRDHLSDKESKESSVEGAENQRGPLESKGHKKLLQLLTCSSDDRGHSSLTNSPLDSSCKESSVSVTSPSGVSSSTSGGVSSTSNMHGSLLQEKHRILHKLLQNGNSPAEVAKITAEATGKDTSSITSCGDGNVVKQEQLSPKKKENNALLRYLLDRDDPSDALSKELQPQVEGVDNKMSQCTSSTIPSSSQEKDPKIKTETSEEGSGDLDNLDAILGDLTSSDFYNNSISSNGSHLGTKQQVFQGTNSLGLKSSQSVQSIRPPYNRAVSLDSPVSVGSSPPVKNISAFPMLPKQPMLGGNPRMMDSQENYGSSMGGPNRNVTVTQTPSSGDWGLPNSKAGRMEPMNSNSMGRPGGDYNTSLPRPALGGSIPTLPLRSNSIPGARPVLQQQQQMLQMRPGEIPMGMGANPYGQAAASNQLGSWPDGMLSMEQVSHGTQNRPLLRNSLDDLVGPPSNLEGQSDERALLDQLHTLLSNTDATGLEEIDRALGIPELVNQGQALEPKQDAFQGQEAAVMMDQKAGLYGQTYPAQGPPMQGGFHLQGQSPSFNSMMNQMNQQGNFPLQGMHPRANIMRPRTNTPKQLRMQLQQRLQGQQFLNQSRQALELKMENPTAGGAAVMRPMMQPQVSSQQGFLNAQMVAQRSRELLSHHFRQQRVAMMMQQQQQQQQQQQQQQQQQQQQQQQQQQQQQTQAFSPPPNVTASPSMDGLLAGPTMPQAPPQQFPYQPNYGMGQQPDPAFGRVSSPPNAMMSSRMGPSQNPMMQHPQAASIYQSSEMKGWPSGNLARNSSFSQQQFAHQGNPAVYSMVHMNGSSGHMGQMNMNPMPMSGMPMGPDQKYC
Chain of Induced myeloid leukemia cell differentiation protein Mcl-1 (Q07820 whole entry): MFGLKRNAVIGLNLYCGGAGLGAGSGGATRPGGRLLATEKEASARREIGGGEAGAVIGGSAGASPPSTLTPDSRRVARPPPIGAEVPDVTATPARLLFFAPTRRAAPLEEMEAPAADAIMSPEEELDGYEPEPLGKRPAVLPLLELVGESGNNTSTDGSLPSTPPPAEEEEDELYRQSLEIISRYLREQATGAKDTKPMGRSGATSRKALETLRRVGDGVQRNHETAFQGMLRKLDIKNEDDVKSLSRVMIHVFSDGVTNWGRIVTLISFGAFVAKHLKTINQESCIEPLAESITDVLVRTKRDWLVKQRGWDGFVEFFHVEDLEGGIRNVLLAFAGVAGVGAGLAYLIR

Cc1cccc(C)c1NC(=O)c1ccc(-c2cc(F)ccc2F)o1
IC50 [1]: 16.9 µM (inactive) | IC50 [2]: > 25 µM (inactive) | IC50 [3]: > 25 µM (inactive) | IC50 [4]: > 25 µM (inactive)

Cc1ccc(-n2c(=O)c3sccc3n(CC(=O)NCC3CCCO3)c2=O)cc1F (configuration not stated)
IC50 [5]: > 79.4 µM (inactive) | IC50 [6]: > 79.4 µM (inactive) | IC50 [7]: > 79.4 µM (inactive)

COc1ccc(OC(C)C(=O)N2CC(C)OC(C)C2)cc1 (configuration not stated)
IC50 [5]: > 79.4 µM (inactive) | IC50 [6]: > 79.4 µM (inactive) | IC50 [7]: > 79.4 µM (inactive)

Cc1ccc(N2C(=O)/C(=C\Nc3ccccc3-c3nnc(S)nc3O)c3ccccc3C2=O)cc1C
EC50 [8]: 0.262 µM (active) | IC50 [9]: 11.2 µM (active) | EC50 [10]: 0.798 µM (active) | IC50 [11]: 3.94 µM (active) | CC50 [12]: > 40 µM (active) | EC50 [13]: > 150 µM (not active) | EC50 [14]: > 180 µM (inactive) | IC50 [15]: 39.2 µM (active) | EC50 [16]: 23 µM (active) | IC50 [17]: 3.26 µM (active) | EC50 [18]: 26.6 µM (inactive) | EC50 [19]: 13.8 µM (active) | EC50 [20]: 13.2 µM (not active) | AC50 [21]: 33.6 µM (active) | EC50 [22]: > 79.4 µM (not active) | IC50 [23]: 31.5 µM (active) | EC50 [24]: 16 µM (inconclusive)
